# Literature values as cited in US20260009077A1, “COMPOSITIONS AND METHODS FOR TREATING HYPOTHYROIDISM” (THE UNIVERSITY OF CHICAGO, priority 2022, published 2026).
structure (smiles),measurement,setting,value
N[C@@H](Cc1cc(I)c(Oc2cc(I)c(O)c(I)c2)c(I)c1)C(=O)O [levothyroxine],proportion of patients noticing reemergence of hypothyroid symptoms,"after switch from T4 and T3 containing treatment to T4 only, despite appropriate T4 doses",15-20%
same,patients in whom treatment restores normal life,"hypothyroidism patients, daily tablets, standard of care",at least 80%
